Reference: US11560360B2, “Therapeutic compounds” (ARIZONA BOARD OF REGENTS ON BEHALF OF ARIZONA STATE …, priority 2016, dated 2023)

Tests used:
FRDA lymphocytes [1] = experiment: Cytotoxicity assay in FRDA lymphocytes cultured in glucose free media (galactose), Live/Dead flow cytometry; format: cell-based
Protocol: Flow cytometric determination of cell viability by fluorescence labeling was used employing calcein acetoxy-methyl-ester and ethidium homodimer-1 as live and dead cell stains
Cytotoxicity was assessed by the dye exclusion method. Live cells have intact membranes, which exclude a variety of dyes that easily penetrate the damaged, permeable membranes of non-viable cells. Propidium iodide, a membrane impermeant dye, is generally excluded from viable cells, although it can enter non-viable cells and bind to double-stranded DNA by intercalating between base pairs. Compounds 1-5 were tested for their cytotoxicity in FRDA lymphocytes using FACS analysis with propidium iodide. The results are depicted in FIG. 2. From the results it is evident that cytotoxicity decreases with increasing lipophilicity in lower as well as higher concentrations for compounds 1-5.
Evaluation of compounds 1-5 for their cytotoxicity and their ability to function within the mitochondrial respiratory chain was carried out by incubation of the prepared compounds for 24 or 48 h with FRDA lymphocytes. A nutrient-sensitized screening strategy has been used by culturing FRDA cells in galactose as the sole sugar source which forces mammalian cells to rely on mitochondrial oxidative phosphorylation (OXPHOS) to produce their ATP; they also become more sensitive to mitochondrial respiratory chain inhibitors than cells grown in glucose medium. Compounds 1-5 were tested for their cytotoxicity in FRDA lymphocytes using a simultaneous staining with a two-color fluorescence assay, the Live/Dead® Viability/Cytotoxicity Kit (Molecular Probes). This assay is used to measure two recognized parameters of cell viability, intracellular esterase activity and plasma integrity. The membrane-impermeant DNA dye ethidium homodimer-1 (EthD-1) was used to identify dead cells whose plasma membrane integrity was disrupted. The membrane-permeant dye calcein-AM was used to label live cells. It penetrates into the cells where it is metabolized by cytoplasmic esterases and becomes a fluorescent but membrane-impermeant probe which is retained in viable cells. One mL of FRDA lymphocyte cells (5×10^5 cells) was plated in a 24-well plate in glucose free media (galactose 25 mM), treated with the test compounds and incubated at 37° C. for 24 h or 48 h in a humidified atmosphere containing 5% CO2 in air. Cells were collected by centrifugation at 300×g for 3 min and washed with phosphate buffered saline. […] The samples were analyzed immediately by flow cytometry (C6 Accuri, BD Biosciences, San Jose, Calif.), using a 488 nm excitation laser and the and the FL1-H channel 530±15 nm emission filter and the FL2-H channel 585±15 nm. For each analysis 10,000 events were recorded and analyzed using C6 Accuri software (BD Biosciences).

[2] = test system: mitochondrial inner membrane potential in FRDA lymphocytes; experiment: JC-1 mitochondrial membrane potential (Δψm) assay; format: cell-based, human; settings: 16 h pre-treatment, JC-1, FACS (FIG. 4)
Protocol: In each analysis, 10000 events were recorded. Depolarization with carbonyl cyanide p-(trifluoromethoxy) phenylhydrazone (FCCP), was used to serve as a positive control.
The ability of 1-5 to maintain mitochondrial membrane potential (ΔΨm) compared to the parent compound MV was studied. ΔΨm was determined using the cationic fluorescent dye 5, 5′, 6, 6′-tetrachloro-1, 1′, 3, 3′-tetraethylbenzimidazolyl carbocyanine iodide (JC-1), which is a lipophilic cation that selectively accumulates in mitochondria due to the negative potential across the inner mitochondrial membrane. The dye exists as a monomer at low concentrations giving a green fluorescence. […] Therefore, mitochondrial depolarization is indicated by a decrease in red/green fluorescence ratio. […]
The ability of the test compounds to depolarize or maintains mitochondrial inner membrane potential (Δψm) was assessed using the JC-1 probe. […] JC-1 is a dual stain, which can identify high membrane potential through J-aggregates (red fluorescence) and low membrane potential through J-monomers (green fluorescence). […] Cells were resuspended in phosphate buffered saline supplemented with 20 mM glucose and were analyzed immediately by FACS (C6 Accuri, BD Biosciences, San Jose, Calif.), using a 488 nm excitation laser and the FL1-H channel 530±15 nm emission filter and the FL2-H channel 585±15 nm. […]

FRDA lymphocytes [3] = experiment: Measurement of cellular ATP concentration (firefly luciferase); format: cell-based, human; settings: glucose free media (25 mM galactose), relative to untreated control (FIG. 6)
Protocol: Results are expressed as percentage of total ATP relative to untreated control.
ATP levels in FRDA lymphocytes were measured using firefly luciferase. The cells were grown on glucose-free media supplemented with galactose for 24 h prior to the addition of the test compounds. Since cells grown in galactose rely mostly on oxidative phosphorylation (OX-PHOS) to produce their ATP, they become more sensitive to mitochondrial respiratory chain inhibitors than cells grown in glucose medium.
Measurement of Cellular ATP Concentration
Total ATP levels in FRDA lymphocytes with or without partially blocking complex I activity with rotenone (5 nM) were measured using firefly luciferase as a means to measure ATP level. The cells were grown on glucose-free media supplemented with galactose. Since cells grown in galactose rely mostly on oxidative phosphorylation (OXPHOS) to produce their ATP, they become more sensitive to mitochondria respiratory chain inhibitors than cells grown in glucose medium. Briefly, lymphocytes (2×10^5 cell/mL) were plated (1 mL) in 24-well plates, treated with the test compounds, and then incubated at 37° C. for 48 h in a humidified atmosphere containing 5% CO2 in air. FRDA lymphocytes with partial inhibition of complex I, cells were preincubated with test compounds for overnight before rotenone (5 nM) treatment for 24 h. Cells in each well were mixed and transferred (100 μL) to 96-well microtiter black-walled cell culture plates (Costar, Corning, N.Y.). The total intracellular ATP level was measured in a luminator (Clarity™ luminescence microplate reader) using an ATP Bioluminescence Assay Kit (ViaLight®-Plus ATP monitoring reagent kit, Lonza) following the manufacturer's protocol. The total ATP level was expressed as a percentage of untreated control. Data are reported as the mean of at least three independent experiments.

## CN(C)c1ccc2nc3ccc(=[N+](C)C)cc-3sc2c1 [MB, Methylene blue, reference compound]
FRDA lymphocytes [1]; FRDA lymphocytes on galactose for 48 h (FIG. 2)
  cytotoxicity: cytotoxic
FRDA lymphocytes [1]; FRDA lymphocytes, 0.5-2.5 μM concentrations
  cytotoxicity: strong cytotoxicity
[2]
  preservation of mitochondrial membrane potential (Δψm): significantly depolarized Δψm
FRDA lymphocytes [3]
  cellular ATP levels: inhibited ATP production, especially at higher concentrations
